Data from US20170191058A1, “PERFORIN 2 DEFENSE AGAINST INVASIVE AND MULTIDRUG RESISTANT PATHOGENS” (priority 2012, published 2017).

How the values were obtained:
[1] = system: P-2 mRNA; test: P-2 mRNA expression in mEF by TAQMAN PCR after cytokine treatment; assay type: cell-based, murine; conditions: added singly, 14 hours
Procedure: (§1) Murine embryonic fibroblasts (FIG. 14A), a rectal cancer cell line (FIG. 14B), myoblast cell line (FIG. 14C), and an ovarian cell line (FIG. 14D) were treated for 14 hours with 100 U/ml interferon-α, interferon-β, and interferon-γ treated. LPS was treated at 1 ng/ml; IL-1α at 10 U/ml, IL-1β at 1 ng/ml, and TNFα at 20 ng/mL. A human embryonic kidney cell line (FIG. 14E) and cervical cancer cell line (FIG. 14F) were treated with human IFN-α at 150 U/ml, IFN-β and IFN-γ at 100 U/ml. The BV2 microglial cell line was stimulated with 100 U/ml of murine Interferon-γ for 14 hours to upregulate P-2 mRNA and protein. mEF treated with IFN-γ for 14 hours (mEF), or IFN-γ for 14 hours followed by 1 hour of treatment with […] MG-132 (mEF+MG132) (FIG. 14G). Human primary keratinocytes were analyzed for protein expression with indicated recombinant human IFN treatment (FIG. 14H). mEF were treated with E. coli or M. smegmatis. At indicated time points, cells were harvested and analyzed for P-2 mRNA and compared to uninfected controls by TAQMAN™ PCR. (FIG. 14I) mEF were either not stimulated, or stimulated for 14 hours with IFN-γ at 100 U/ml. After stimulation, mEF were infected with M. smegmatis and analyzed for colony forming units at indicated time points.
Recombinant murine IL-1α, IL-1β, TNFα, IFN-γ, IFN-α, IFN-β recombinant human IFN-γ, IFN-β were purchased from preprotech. Recombant human IFN-α was purchased from R&D systems. Murine […] was supplemented at 10 U/mL where indicated. Murine IL-1β was supplemented at 1 ng/ml. Murine TNFα was supplemented at 20 ng/ml. Murine IFN-α, IFN-β and IFN-γ was supplemented with 100 U/ml. Human IFN-α was supplemented where indicated in at a concentration of 150 U/ml where indicated. Human IFN-β and IFN-γ was supplemented at a concentration of 100 U/ml. LPS was added at a concentration of 1 ng/ml.
RNA was extracted from cells following RNeasy (Qiagen) instructions. One μg of RNA was converted to cDNA using QuantiTect Reverse Transcription kit (Qiagen) following supplier's protocol. qRT-PCR was performed using TAQMAN® Gene Expression Assays (Applied Biosystems) for murine Mpeg1 and GAPDH, with the later serving as a housekeeping control gene. For human tissues, human Mpeg1 and GapDH probes were utilized. All assays were performed on the Applied Biosystems 7300 PCR platform.

[2] = system: M. smegmatis; test: Gentamycin protection assay: M. smegmatis in IFN-preinduced mEF; assay type: cell-based, Mycobacterium smegmatis; conditions: uninduced mEF delayed by about 16 h
Procedure: as §1, with “points. […]” for “points.”

[3] = system: P-2; test: P-2 expression in macrophages, BMDM/DC and microglia after LPS and IFN-γ; assay type: cell-based, murine; conditions: LPS and IFN-γ given together, microglia
Procedure: BMDM/DC were differentiated from murine bone marrow for 10 days in the presence GM-CSF and then stimulated with (FIG. 9A) LPS ([…]) and IFNγ (100 U/ml) or (FIG. 9B) poly(I:C) (3 mg/ml) for 48 hr. (FIG. 9C) BV2 microglial cells were stimulated for 24 hr with IFNγ (100 U/ml). (FIG. 9D) RAW cells were stimulated for 24 hr with LPS (Ing/ml) and IFNγ (100 U/ml). Cells were harvested at the indicated time points and analyzed for P-2 message expression by TAQMAN™ RT-PCR, relative to GAPDH.
RNA was extracted from cells according to RNeasy (Qiagen) instructions. 1 μg of RNA was converted to cDNA using QuantiTect Reverse Transcription Kit (Qiagen) RT-PCR was performed using TAQMAN® Gene Expression Assays (Applied Biosystems) for murine Mpeg-1 and GAPDH, as a housekeeping control gene. All assays were performed on Applied Biosystems 7300 PCR platform.

[4] = system: M avium, MRSA, S. typhimurium, E. coli and M. smegmatis; test: Gentamycin protection assay in RAW, BV2, BMDM/DC and PEM cells; assay type: cell-based; conditions: transfected cells vs vector control
Procedure: Gentamicin protection assay: S. typhimurium strain LT2Z, Mycobacterium avium, Mycobacterium smegmatis (ATCC), methicllin resistant Staphylococcus aureus and K12 E. coli were grown from glycerol stocks at 37° C. with shaking for 16-18 hr in Luria broth (LB) (S. typhimurium, S. aureus, and E. coli) or Middlebrook 7H9 broth (Mycobacteria) prior to infection. For Salmonella, the culture was then diluted 1:33 in LB and grown for another 3 hours to induce invasive phenotype. Macrophages or microglial cells were plated (5×10^5 cells/well of a 12 well plate) and stimulated overnight with LPS (Ing/ml) and IFN-γ (100 U/ml). Cells were infected the next day at indicated MOI for 30 minutes (S. typhimurium,) or 1 hour (all other bacteria) in 37° C., 5% CO2 incubator. Cells were washed twice with PBS and fresh medium containing 50 μg/ml gentamicin was added. […] At the indicated timepoints after adding gentamicin, the cells were washed with PBS, lysed using 0.1% Triton-X in water, diluted and plated in triplicate on agar plates and CFU determined. […]
In addition to PEM, bone marrow-derived macrophage/dendritic cells (BMDM/BMDC) and macrophage (RAW264.7) and microglia (BV2) cell lines have potent intracellular killing mechanisms for phagocytosed MRSA, Mycobacteria, S. typhimurium, and E. coli as determined by the gentamycin protection assay (FIGS. 3A-31). […]

[5] = system: intracellular bacteria; test: Gentamycin protection assay in various mouse and human cells and cell lines; assay type: cell-based; conditions: complementation assays
Procedure: (§2) Mouse rectal carcinoma CMT-93 was transiently transfected with a P-2 siRNA pool, or with P-2-RFP. Scramble siRNA or RFP were also transfected and analyzed to serve as controls for P-2 siRNA and P-2-RFP respectively. All transfections were performed 24 hours prior to infection. 14 hours prior to infection, cells were incubated with 100 U/ml of species specific IFN-γ. At indicated time points after infection, cells were lysed and plated for CFU analysis. (FIGS. 16A-16D) mEF were transfected with P-2siRNA and complemented with siRNA resistant P-2-RFP cDNA 24 hours prior to infection. 14 hours prior to infection, interferon-γ was added. mEF were infected with late log phase S. typhimurium. At indicated time points mEFs were lysed and analyzed for colony forming units. […]
S. typhimurium strain LT2Z), Mycobacterium smegmatis, methicillin-resistant Staphylococcus aureus, and E. coli strain K12 were grown from glycerol stocks at 37° C. with shaking for 24 hours in Luria broth (S. typhimurium, S. aureus, and E. coli) or Middlebrook 7H9 broth (M. smegmatis). […] At indicated time points, cells were washed with PBS, lysed using 1% Igepal in ddH2O, diluted and plated in technical triplicate on LB agar plates (S. typhimurium, S. aureus, E. coli) or Middlebrook 7H11 plates (M. smegmatis) and CFU determined after sufficient colony growth. […]

[6] = system: Salmonella; test: Gentamycin protection assay: intracellular Salmonella in mEF; assay type: cell-based, Salmonella typhimurium; conditions: P-2 siRNA co-transfected
Procedure: as §2
S. typhimurium strain LT2Z), Mycobacterium smegmatis, methicillin-resistant Staphylococcus aureus, and E. coli strain K12 were grown from glycerol stocks at 37° C. with shaking for 24 hours in Luria broth (S. typhimurium, S. aureus, and E. coli) or Middlebrook 7H9 broth (M. smegmatis). […] At indicated time points, cells were washed with PBS, lysed using 1% Igepal in ddH2O, diluted and plated in technical triplicate on LB agar plates (S. typhimurium, S. aureus, E. coli) or Middlebrook 7H11 plates (M. smegmatis) and CFU determined after sufficient colony growth.

| Molecule | P-2 mRNA induction in mEF [1] | time to kill intracellular M. smegmatis [2] [h] | P-2 mRNA and protein expression [3] | effect of overexpression on intracellular killing [4] | activity of transfected fusion protein in killing of intracellular bacteria [5] | complementation of endogenous P-2 knock down in mEF: killing activity [6] |
| --- | --- | --- | --- | --- | --- | --- |
| IFNγ | up-regulates P-2 mRNA | 1 to 5 | upregulate P-2 mRNA and protein expression |  |  |  |
| P-2-GFP: P-2 fused via a linker at the C-terminus of its cytoplasmic domain to GFP, expressed by transfection (protein, left off: large carriers) DKPLGETGTTGFQICKNALKLPVLEVLPGGGWDNLRNVDMGRVMDLTYTNCKTTEDGQYIIPDEVYTIPQKESNLEMNSEVLESWMNYQSTTSLSINTELALFSRVNGKFSTEFQRMKTLQVKDQAVTTRVQVRNRIYTVKTTPTSELSLGFTKALMDICDQLEKNQTKMATYLAELLILNYGTHVITSVDAGAALVQEDHVRSSFLLDNQNSQNTVTASAGIAFLNIVNFKVETDYISQTSLTKDYLSNRTNSRVQSFGGVPFYPGITLETWQKGITNHLVAIDRAGLPLHFFIKPDKLPGLPGPLVKKLSKTVETAVRHYYTFNTHPGCTNVDSPNFNFQANMDDDSCDAKVTNFTFGGVYQECTELSGDVLCQNLEQKNLLTGDFSCPPGYSPVHLLSQTHEEGYSRLECKKKCTLKIFCKTVCEDVFRVAKAEFRAYWCVAAGQVPDNSGLLFGGVFTDKTINPMTNAQSCPAGYIPLNLFESLKVCVSLDYELGFKFSVPFGGFFSCIMGNPLVNSDTAKDVRAPSLKKCPGGFSQHLAVISDGCQVSYCVKAGIFTGGSLLPVRLPPYTKPPLMSQVATNTVIVTNSETARSWIKDPQTNQWKLGEPLELRRAMTVIHGDSNGMSGGEAAGITLGVTIALGIVITLAIYGTRKYKKKEYQEIEEQESLVGSLATDATVLNGEEDPSPA |  |  |  | increases bactericidal activity | functional in killing of intracellular bacteria | fully reconstitutes bactericidal activity |
